{"source": "patent US20110245311A1", "about": "“Histidine Derivatives” (priority 2010, published 2011)", "key": {"U-87 cells": {"test_system": "U-87 cells", "experiment": "Cell viability (cell count) with U-87 cells", "type": "cell-based", "settings": "Homo sapiens, U-87 MG, 72 hours, 37° C., MEM pH 7.0, read-out: EC90 (concentration resulting in greater than 90% decrease of cell numbers)"}, "caspase 3": {"test_system": "caspase 3", "experiment": "In vitro caspase assay (ELISA) in U-87 cells", "type": "cell-based, human", "settings": "5 mM, 18 hours after the addition", "description": "U-87 cells were used to test the effect of Compound A on the apoptotic pathway.\nU-87 cells were seeded in MEM alone or in MEM supplemented with 5 mM of Compound A, in MTP. For in vitro caspase assay, the cell culture plates were removed from incubator, cells were lysed and centrifuged and the supernatant was tested for caspase levels (C3). Supernatants from each sample were tested side by side on a new microtitre plate by ELISA with AP labelled IgG C3 antibody, pNPP chromogen (Enzo Diagnostics, Farmingdale, N.Y.). Caspase assays were performed immediately after the addition of the MEM medium, with or without Compound A, and 18 hours after the addition."}, "Gram positives": {"test_system": "Gram positives", "experiment": "Antibiotic activity, plate counts on Mueller-Hinton agar, Gram positives", "type": "cell-based", "settings": "plate counts after overnight incubation at 37° C."}, "HepG2 cells": {"test_system": "HepG2 cells", "experiment": "Cell viability of HepG2 cell line", "type": "cell-based", "settings": "Homo sapiens", "description": "The antineoplastic activities of Compound A were tested with U-87, a human glioblastoma/astrocytoma cell line and HepG2, a human liver carcinoma cell line.\nThe antineoplastic activity of Compound A was also measured with HepG2 cells."}, "mice": {"test_system": "mice", "experiment": "Preclinical safety study in mice", "type": "in vivo", "settings": "300 mg/kg or 500 mg/kg orally (PO), up to 72 hours", "description": "Preclinical safety studies were performed with administration of different levels of doses of Compound A to mice. Toxicity was analyzed with standard clinical chemical and histopathological examination. Five mice (n=5) were treated with 300 mg/kg or 500 mg/kg orally (PO) with one hour pretreatment for PO. Autonomic signs/mortality was measured during the first hour and mortality was measured again at 3, 24, 48 and 72 hours after administration."}, "Gram negative strains": {"test_system": "Gram negative strains", "experiment": "Antibiotic activity, plate counts on Mueller-Hinton agar, Gram negative ATCC strains", "type": "cell-based", "settings": "2 mg/ml, 1 mg/ml; plate counts after overnight incubation at 37° C.", "description": "The antibiotic activity of S-2-amino-3(3-phenylacetylimidazol-4-yl)propanoic acid (Compound A) was tested with a panel of standard ATCC bacteria, including 13315 Proteus vulgaris, 13883 Klebsiella pneumoniae, 25922 Escherichia coli, 27853 and Pseudomomas aeruginosa.\nDoubling dilutions of Compound A were tested on its antibiotic potentials. […] Plate counts were performed. All petri plates inoculated with 1 ml 0.5McFarland turbidity of corresponding ATCC strain."}}}
{"smiles": "N[C@@H](Cc1cncn1C(=O)Cc1ccccc1)C(=O)O", "note": "[Compound A, (S)-2-amino-3-(3-phenylacetylimidazol-4-yl) propanoic acid]", "values": [{"measurement": "EC90", "setting": "U-87 cells", "value": 5, "unit": "mM"}, {"measurement": "increase of caspase 3", "setting": "caspase 3", "value": "Exponential increase, in the scale of several orders of magnitude"}, {"measurement": "inhibition of Gram positives", "setting": "Gram positives", "value": "No inhibition"}, {"measurement": "EC90", "setting": "HepG2 cells", "value": 5, "unit": "mM"}, {"measurement": "cytotoxicity at 5000 µM", "setting": "HepG2 cells; 5 mM, read-out: decrease in cell viability", "value": "> 90", "unit": "%"}, {"measurement": "toxicity (autonomic signs/mortality, clinical chemical and histopathological examination)", "setting": "mice", "value": "No toxicity was observed"}, {"measurement": "inhibition of Gram negative strains", "setting": "Gram negative strains", "value": "did show inhibition"}]}
